In the experiment the test system is A/WSN/33 H1N1 virus. It counts as cell-based, Influenza A virus.

Ends that are not written are not given here.

RRKKWLVFFVIYFFR [FP4, RRKKWLVFFVIYFFR] registered a knockdown of 100%.

The values are drawn from US20130205416A1 (priority 2010, published 2013).
